In brackets after ≈: the same amount, converted by molar mass.
Details: buffer; pH 7.4; 6.0 h; 150.0 µM

SMILES | solubility kinetic
Oc1ccc(CNc2cccc(F)c2F)c2cccnc12 | < 1 µg/mL
COc1ccc(C(=O)NC2CCCc3c2[nH]c2ccccc32)cc1OC (stereo not given) | 4.79 µg/mL (≈ 13.7 µM)
CC(C)(C)OC(=O)N[C@@H](Cc1ccc(O[S+](=O)([O-])c2cccc3cnccc23)cc1)C(=O)N1CCN(Cc2ccccc2)CC1 | < 1 µg/mL
COc1ccc(-c2nc3ccccc3c(=O)n2Cc2ccco2)cc1COc1ccc(NC(C)=O)cc1 | 2.35 µg/mL (≈ 4.74 µM)
O=C1CCCC2=C1C(c1[nH]ncc1Cl)N=C(Nc1nc3cc(F)ccc3o1)N2 (stereo not given) | 3.16 µg/mL (≈ 7.87 µM)
Cc1ccc(S(=O)(=O)Nc2ccccc2Nc2nc(-c3ccccc3)cs2)cc1 | < 1 µg/mL
Cc1cc(Nc2nc(-c3ccncc3)nc3ccccc23)n[nH]1 | 1.1 µg/mL (≈ 3.65 µM)
NC1(c2ccc(NC(=O)c3ccnc(-c4cc(C(=O)O)ccn4)c3)cc2)CC1 | 2.79 µg/mL (≈ 7.46 µM)
COc1ccccc1C(=O)Nc1ccccc1C(=O)Nc1cccc(SC(F)(F)F)c1 | < 1 µg/mL
COc1cccc(CNc2ccc(S(=O)(=O)Nc3cc(C)on3)cc2)c1O | > 58 µg/mL
CCc1ccc(OC(C)C(=O)N2CCC(c3nc4ccccc4o3)CC2)cc1 (stereo not given) | 17.9 µg/mL (≈ 47.3 µM)
CCOC(=O)N1CCN(Cc2nc3c(c(=O)n(C)c(=O)n3C)n2CCC(C)C)CC1 | > 62 µg/mL
COc1ccccc1C(=O)Nc1nc2nc(C)cc(=O)n2[nH]1 | > 44 µg/mL
COC(=O)C1=COC(C)C2CN3CCc4c([nH]c5cc(OC)c(OC)cc45)C3CC12 (stereo not given) | 46.9 µg/mL (≈ 114 µM)
COc1ccc(S(=O)(=O)Nc2cnccc2C(=O)Nc2nc(-c3ccccc3)cs2)cc1 | 54.1 µg/mL (≈ 116 µM)
O=C(Nc1ccc2oc(-c3cccnc3)nc2c1)c1ccc(-c2cccc(Cl)c2)o1 | 1.1 µg/mL (≈ 2.65 µM)
CC(C)(C)c1ccc(SC2=NS(=O)(=O)c3ccccc32)cc1 | < 1 µg/mL
N#Cc1cnc(NS(=O)(=O)c2ccc(NC(=O)Cc3ccc(F)c(Cl)c3)cc2)s1 | > 67 µg/mL
CCC[C@@H]1CN(C(=O)c2ccc(-c3ccc(C)o3)cc2)C[C@H]1NC(C)=O | > 52 µg/mL
CCN1C(=O)c2ccccc2S(=O)c2ccc(NC(=O)Cc3ccc(F)cc3)cc21 (stereo not given) | < 1 µg/mL
COc1cccc(-c2noc(Nc3ccc4c(c3)OCCO4)n2)c1 | < 1 µg/mL
CCOC(=O)c1ccc(-n2c(C)cc(-c3nnc4n3CCCCC4)c2C)cc1 | > 56 µg/mL
CC(=O)c1c(C)[nH]c(C(=O)Nc2cccc([S+](=O)([O-])Nc3cccnc3)c2)c1C | > 61 µg/mL
c1ccc2c(Nc3ccn[nH]3)nc(-c3ccncc3)nc2c1 | < 1 µg/mL

SMILES | solubility kinetic
Cc1cccc(N2CCN(C(=O)Cn3ncc4c3-c3ccccc3OC4)CC2)c1C | 3.85 µg/mL (≈ 9.57 µM)
COc1cccc(CC(=O)Nc2nc(-c3ccc4c(c3)CCN4C(=O)c3ccccc3C)c(C)s2)c1 | < 1 µg/mL
COc1cccc(Nc2nc(-c3ccncc3)nc3ccccc23)c1 | < 1 µg/mL
CCCCOc1ccccc1C(=O)Nc1ccccc1C(=O)Nc1cccc(S(=O)(=O)C(F)(F)F)c1 | < 1 µg/mL
Cc1cccc(-n2ncc3c2CCCC3NC(=O)c2c(F)ccc(F)c2F)c1C (stereo not given) | 7.25 µg/mL (≈ 18.1 µM)
O=[S+]([O-])(Nc1ccc(C2CCNCC2)cc1)c1ccc(NCc2ccc(Cl)cc2O)cc1 | 23.9 µg/mL (≈ 50.6 µM)
Cc1nc([C@](C)(O)CO)sc1-c1cnc(N)c(O[C@H](C)c2cc(F)ccc2-n2nccn2)c1 | 37.3 µg/mL (≈ 79.2 µM)
Clc1ccccc1-c1nc(NCc2ccc(-c3cccnc3)cc2)c2ccccc2n1 | < 1 µg/mL
CC(C)(C)OC(=O)N[C@@H](Cc1ccc(OS(=O)(=O)c2cccc3cnccc23)cc1)C(=O)N1CCCN(C(=O)OC(C)(C)C)CC1 | < 1 µg/mL
Cc1cc2ccccc2n1CC(=O)NC1CCCCC1 | 3.41 µg/mL (≈ 12.6 µM)
O=C(Nc1cccc(F)c1)c1cc(-c2ccc[nH]2)n[nH]1 | 1.77 µg/mL (≈ 6.57 µM)
O=S(=O)(Nc1nccs1)c1ccc(NCc2cccc(Br)c2O)cc1 | 36.3 µg/mL (≈ 82.5 µM)
CCN1CCN(CCCNC(=O)c2ccc3c(c2)sc2nc(-c4ccc(OC)cc4)cn23)CC1 | > 71 µg/mL
Cc1ccc(S(=O)(=O)Nc2ccccc2C(=O)Nc2nc(-c3ccccc3)c(Br)s2)cc1 | < 1 µg/mL
COc1ccc(C(=O)Nc2nc(-c3ccccc3)cs2)cc1NS(=O)(=O)c1ccc(C)cc1 | < 1 µg/mL
Cc1cccc(N(C)c2nc3ccccc3c3nnc(C)n23)c1 | > 45 µg/mL
Cc1cc(N)c2cc(NC(=O)Nc3ccc4nc(C)cc(N)c4c3)ccc2n1.Cl.Cl | < 1 µg/mL
O=c1c(O)c(-c2ccc(O)cc2)oc2cc(O)cc(O)c12 | 1.35 µg/mL (≈ 4.73 µM)
O=C(Cc1ccc(Cl)c(Cl)c1)Nc1ccc(S(=O)(=O)Nc2cccc(O)c2)cc1 | < 1 µg/mL
NC(=O)C1CCN(c2ncc(-c3cccc(N4CCCC4)c3)s2)CC1 | 11.6 µg/mL (≈ 32.6 µM)
CNC(=O)c1cc(Oc2ccc(NC(=O)Nc3ccc(Cl)c(C(F)(F)F)c3)c(F)c2)ccn1 | < 1 µg/mL
NC(=O)C1CCN(c2nc(-c3ccc(N4CCCCC4)nc3)cs2)CC1 | 43.5 µg/mL (≈ 117 µM)
COc1ccc(C)cc1-n1nnnc1Sc1ncnc2scc(-c3ccc(Br)cc3)c12 | 2.38 µg/mL (≈ 4.65 µM)
COc1ccc(NC(=O)c2c(C)cccc2C)cc1[S+](=O)([O-])N1CCCCC1 | 38.8 µg/mL (≈ 96.3 µM)

SMILES | solubility kinetic
CC(=O)N1CCN(c2ccc(OCc3nn(C)c(C)c3-c3cccc4c(CCCOc5cccc6ccccc56)c(C(=O)O)n(Cc5cccnc5)c34)cc2)CC1 | > 100 µg/mL
CC(C)NC(=O)C1CCN(C(=O)c2cc3sccc3n2Cc2ccc(Cl)cc2)CC1 | < 1 µg/mL
CN(c1ncccc1CNc1nc(Nc2ccc3c(c2)CC(=O)N3)ncc1C(F)(F)F)S(C)(=O)=O | 51.7 µg/mL (≈ 102 µM)
COc1ccc(N(C)C(=O)c2cc3c(s2)-c2ccccc2OC3)cc1 | < 1 µg/mL
CC(=O)c1c(C)[nH]c(C(=O)Nc2cccc([S+](=O)([O-])N3CCC(F)(F)CC3)c2)c1C | 8.98 µg/mL (≈ 20.4 µM)
CCN(CC)C(=O)c1coc(COc2ccc3c(c2)C(c2cccc(F)c2)N(C(=O)C(C)C)CC3)n1 (stereo not given) | < 1 µg/mL
C#CC1(O)CCC2C3CCC4=C/C(=N/OCC(=O)NCC(=O)NC(C(=O)O)C(C)C)CC[C@]4(C)C3CC[C@@]21C (stereo not given in full) | > 80 µg/mL
CCCc1ccc(NC(=O)c2ccc3c(c2)NC(=O)CS3)cc1 | < 1 µg/mL
Cc1ccc(-n2nc3c(N4CCCC(C(=O)NCc5ccccc5C)C4)nnc(C)c3c2C)cc1 (stereo not given) | < 1 µg/mL
Cn1c(CN2CCCCC2)nc2cc(NC(=O)c3cccc(Br)c3)ccc21 | > 63 µg/mL
CCCOC(=O)c1ccc(Oc2c(-c3ccc(O)cc3O)n[nH]c2C)cc1 | < 1 µg/mL
COc1cccc(CNc2ccc(S(=O)(=O)Nc3ccc4ccccc4c3)cc2)c1O | < 1 µg/mL
CCN1C(=O)c2ccccc2[S@](=O)c2ccc(C(=O)N[C@H](C)c3ccc4ccccc4c3)cc21 | < 1 µg/mL
Fc1cnc(-c2ccccc2C(F)F)nc1NCc1ccc(-c2ccn[nH]2)cc1 | < 1 µg/mL
Cc1ccccc1C(C(=O)NC1CCCCC1)N(C(=O)Cn1ccnc1C)c1cccc(F)c1 (stereo not given) | 3.13 µg/mL (≈ 6.76 µM)
CC[C@@H]1C(=O)N(C)c2cnc(Nc3ccc(C(=O)NC4CCN(C)CC4)cc3OC)nc2N1C1CCCC1 | > 77 µg/mL
CS(=O)(=O)c1cccc(-c2csc(N3CCC(C(N)=O)CC3)n2)c1 | 11.7 µg/mL (≈ 32 µM)
CSc1cccc(NC(=O)CC[C@H]2O[C@@H]3O[C@]4(C)CC[C@H]5[C@H](C)CC[C@@H]([C@@H]2C)[C@@]35OO4)c1 | 1.2 µg/mL (≈ 2.6 µM)
COc1ccc(-c2[nH]nc3ncc(-c4ccc(CO)cc4)nc23)cc1F | < 1 µg/mL
COc1ccc(CN2CCc3c(c(=O)n4ncc(C(=O)N5CCN(c6ccccc6OC)CC5)c4n3C)C2)cc1 | 14.2 µg/mL (≈ 26.1 µM)
COc1ccc(Nc2ncc(C(=O)Nc3cccc(Cl)c3)c3ccccc23)cc1 | < 1 µg/mL
CC1=C(C(=O)Nc2nnc(-c3ccccc3)s2)C(c2nn(C)cc2Cl)N=C(Nc2nc3ccccc3o2)N1 (stereo not given) | < 1 µg/mL
CCOC(=O)C1=C(CN(CC)Cc2ccccc2)NC(=O)NC1c1ccc(OC(C)C)cc1 (stereo not given) | < 1 µg/mL
CN(C)c1cccc(-c2cnc(N3CCC(c4ncc[nH]4)CC3)s2)c1 | 32.7 µg/mL (≈ 92.5 µM)

SMILES | solubility kinetic
CN1C(=O)c2ccccc2[S@](=O)c2ccc(C(=O)NCCN3CCCC3)cc21 | > 59 µg/mL
O=[S+]([O-])(Nc1ccccc1)c1ccc(NCc2cccc(Cl)c2F)cc1 | < 1 µg/mL
CC(C)(C)c1ccc(S(=O)(=O)c2cnc(SCC(=O)Nc3ccc(F)c(Cl)c3)[nH]c2=O)cc1 | 58.4 µg/mL (≈ 114 µM)
Cc1ccc(NS(=O)(=O)c2cccc(C(=O)O)c2)cc1S(=O)(=O)N1CCOCC1 | > 65 µg/mL
COc1cc(/C=C(\C#N)C(=O)c2ccc(O)c(O)c2)cc(I)c1O | 50.3 µg/mL (≈ 115 µM)
O=[N+]([O-])c1ccc(-c2nc(Nc3ccc(F)c(F)c3)c3ccccc3n2)cc1 | < 1 µg/mL
Cc1noc(C)c1S(=O)(=O)Nc1cnccc1C(=O)Nc1nc(-c2ccccc2)cs1 | > 66 µg/mL
COc1ccc(OCc2ccc(-c3nc(C#N)c(NC(C)c4ccccc4)o3)o2)cc1 (stereo not given) | < 1 µg/mL
O=C(Nc1ccc(S(=O)(=O)Nc2nc(-c3ccccc3)cs2)cc1)c1ccc2ccccc2c1 | < 1 µg/mL
Cc1cc(-c2nnc3n2CCCCC3)c(C)n1-c1ccc(C(F)(F)F)cc1 | 43.3 µg/mL (≈ 116 µM)
Cc1cnc(-c2ccccc2OC(C)C)nc1NCc1ccc(-n2ccnn2)cc1 | 41.4 µg/mL (≈ 103 µM)
O=C(Nc1nc(-c2ccccc2)cs1)c1ccncc1NS(=O)(=O)c1ccc(F)cc1Cl | < 1 µg/mL
O=S(=O)(Nc1ccc(C2CCNCC2)cc1)c1ccc(NCc2cccc(Cl)c2O)cc1 | 47.2 µg/mL (≈ 100 µM)
O=C(Nc1nnc(-c2ccc(Cl)cc2)o1)c1ccc(Cl)c(Cl)c1 | < 1 µg/mL
c1cc(-c2cc(-c3ccncc3)c3cncn3c2)c2[nH]ccc2c1 | < 1 µg/mL
COc1ccc(CCNC(=O)Cn2c(=O)c3cccn3c3ccc(F)cc32)cc1OC | 6.63 µg/mL (≈ 15.7 µM)
COc1ccccc1CNC(=O)CCCn1nc(C)c2c(C)n(-c3ccc(C)cc3)nc2c1=O | 2.29 µg/mL (≈ 4.98 µM)
CC1=Nc2cc(C(=O)NC3CCCC3)ccc2Sc2ccc(C)cc21 | 1.05 µg/mL (≈ 3 µM)
CN(C)c1cc(-c2nc(Nc3ccc(F)c(F)c3)c3ccccc3n2)ccn1 | < 1 µg/mL
Brc1ccc(-c2csc(N3CCOCC3)n2)cc1 | 1.12 µg/mL (≈ 3.44 µM)
CC1CC(C)(C)N(C(=O)CN2C(=O)c3ccccc3C2=O)c2ccccc21 (stereo not given) | 7.25 µg/mL (≈ 20 µM)
Cc1ccccc1CN1C2=NCCN2C(=O)C2=C1CCN(Cc1ccccc1)C2 | 26.7 µg/mL (≈ 69 µM)
Cc1cccc(C)c1Nc1c(-c2cccs2)nc2ncccn12 | 3.44 µg/mL (≈ 10.8 µM)

Source: PubChem BioAssay AID1645848
